Earlier results on two substances are cited in patent publication US20110066230A1, “Fluorinated GHRH Antagonists” (priority 2009, published 2011).

The test system of data set [1] is rat anterior pituitary adenylate cyclase.
A further data set has as its target T1, pituitary receptors (Homo sapiens, UniProt Q02643).
T1 sequence (Q02643 23-423): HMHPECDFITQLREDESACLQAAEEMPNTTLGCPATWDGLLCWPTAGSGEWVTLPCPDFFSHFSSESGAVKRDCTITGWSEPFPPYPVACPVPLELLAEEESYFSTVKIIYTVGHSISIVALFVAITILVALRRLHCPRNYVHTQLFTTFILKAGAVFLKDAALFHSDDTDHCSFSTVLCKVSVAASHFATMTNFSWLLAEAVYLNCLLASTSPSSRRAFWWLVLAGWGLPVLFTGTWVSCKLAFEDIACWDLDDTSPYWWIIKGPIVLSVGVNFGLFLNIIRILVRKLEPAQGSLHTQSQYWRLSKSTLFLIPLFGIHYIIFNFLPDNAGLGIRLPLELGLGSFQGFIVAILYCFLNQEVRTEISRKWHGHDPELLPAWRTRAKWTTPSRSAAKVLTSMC
The note with it: biological activity on the pituitary.

Setting [2] is: normal subjects, large doses (400 μg/kg).

As for “[Ac-Tyr^1,D-Arg^2]hGH-RH(1-29)NH2 [standard antagonist]”, the GH levels result in the data set with GH secretion (a patient with acromegaly) is “reduced GH levels”. In the data set with GH secretion (setting [2]), the “nocturnal GH secretion” value is “eliminated nocturnal GH secretion” and the “response to GH-RH” value was “inhibited the response to GH-RH”. Moreover, the “activation of rat anterior pituitary adenylate cyclase by hGH-RH(1-29)NH2” value in data set [1] is reported as “prevent the activation”.

“Tyr-Ala-Asp-Ala-Ile^5-Phe-Thr-Asn-Ser-Tyr^10-Arg-Lys-Val-Leu-Gly^15-Gln-Leu-Ser-Ala-Arg^20-Lys-Leu-Leu-Gln-Asp^25-Ile-Met-Ser-Arg^29-NH2 [GH-RH(1-29)]”: the “potency retained relative to native GH-RH” value at pituitary receptors is recorded as ≥ 50%.
